Earlier results, collected in patent publication US9457026B2, “Methods for producing aripiprazole suspension and freeze-dried formulation” (OTSUKA PHARMACEUTICAL CO., LTD., priority 2007, dated 2016).

Settings: room temperature

In the case of `O=C1CCc2ccc(OCCCCN3CCN(c4cccc(Cl)c4Cl)CC3)cc2N1` [Aripiprazole], the aqueous solubility is given as < 1 µg/mL.
